Reference: publication PMC2360206 (British Journal of Cancer, 2006)
“Also recorded” adds a separate entry of the source.

Columns and labels:
[1] = design: method as in Raynaud et al, 2005; details: mouse, single dose 500 mg kg^−1 p.o.; ref Raynaud et al, 2005; cited from earlier work
[2] = tested on: Urinary retinol binding protein; assay: Urinary retinol-binding protein, marker of renal tubular damage; type: in vivo, human; details: range 0.10–100.0
Description: (§1) In an attempt to understand further the pathogenesis of these biochemical toxicities, three patients were studied more intensively. Urinary retinol-binding protein (RBP), a marker of renal tubular damage was measured in conjunction with functional renal imaging (MAG3 renograms) to estimate renal blood flow pretreatment on days 3 and 14. […] This was associated with bilateral increases in renal parenchymal retention on day 3 on MAG3 scans, which reverted to normal by day 14 (see Figure 1). […] There were no consistent changes in urinary RBP in any of these patients (Table 3).

malignant solid tumour = assay: Antitumour activity in patients (RECIST); type: in vivo, human; details: for Patients with stable disease after course 2: progressed by course 4
Description: (§2) Before commencing treatment, a complete medical history was taken and physical examination was performed. The following pretreatment baseline examinations were performed within 4 weeks of starting treatment: full blood count, including white blood cell differential; reticulocyte count, haptoglobin, prothrombin time and Coombs test; serum biochemistry, including sodium, potassium, urea, creatinine, calcium, phosphorus, creatine kinase and isoenzymes, total protein, albumin, bilirubin (direct and total), alkaline phosphatase (ALP), alanine aminotransferase (ALT), aspartate aminotransferase (AST), γ-glutamyl transferase (γGT), lactate dehydrogenase and uric acid; urinalysis; pregnancy test, electrocardiogram and a chest X-ray. Weekly evaluations included history, physical examination, toxicity assessment according to the CTC criteria version 2.0 and full blood count and serum chemistries. Radiographic assessment of tumour was performed within 3 weeks before the patient starting treatment and after every two cycles, according to standard RECIST methodology. Patients were taken off protocol upon disease progression, unacceptable toxicity, investigator discretion, serious violation of protocol or at their own request, and were followed for 28 days after the last administration of the study drug.

[3] = design: method as in earlier work; details: exposure over a 24-h period, preclinical data, ref De la Motte and Gianella-Borradori, 2004, Whittaker et al, Tang et al, 2005; cited from earlier work
[4] = 28 days treatment in rodents; no reference given; cited from earlier work
[5] = Phase I toxicity (NCI CTC v2.0) in patients; type: in vivo, human; details: for No. with grade 3 & 4 ALT increased / No. with grade 3 & 4 AST increased / No. with grade 3 & 4 Alk Phos increase / No. with grade 3 & 4 Anorexia / No. with grade 3 & 4 Bilirubin increase / No. with grade 3 & 4 CKMB increase / No. with grade 3 & 4 Fatigue / No. with grade 3 & 4 Hyperglycaemia / No. with grade 3 & 4 Hypokalemia / No. with grade 3 & 4 Hyponatraemia / No. with grade 3 & 4 Hypotension / No. with grade 3 & 4 Lymphopenia / No. with grade 3 & 4 Rash / No. with grade 3 & 4 adverse events / No. with grade 3 & 4 γ GT increase: first course; for Patients with derangements in liver biochemistry (γGT and ALP elevations): 7-day treatment period
From the text: Dose-limiting toxicity (DLT) was defined as drug-related toxicity in the first cycle, including grade 4 neutropenia for 7 days or more, neutropenic fever, platelet count <25 × 10^9 l^−1 and/or non-haematological toxicity⩾grade 3. This definition excluded nausea and vomiting subsequently responding to antiemetic therapy and reversible grade 3 increases in liver transaminases. The maximum tolerated dose (MTD) was defined as a dose below which DLT occurred in more than 30% of the patients. Toxicities were evaluated according to the National Cancer Institute Common Toxicity Criteria, version 2.0.
as §2
In addition, more intensive blood chemistry testing was performed on days 1, 3, 5 and 7.

human tumour xenograft = tested on: human tumour xenograft; design: method as in Raynaud et al, 2005; details: 500 mg kg^−1 p.o. b.i.d., mouse; ref Raynaud et al, 2005; cited from earlier work
Cdk4 = details: background statement, no reference given; cited from earlier work
renal perfusion = assay: MAG3 renogram functional renal imaging; type: in vivo, human; details: one of three patients, 800 mg b.i.d., day 3, reverted to normal by day 14
Description: as §1

Cdk8 = details: background statement, no reference given; cited from earlier work
[6] = tested on: Retinoblastoma phosphorylation and cyclin D1 levels in peripheral blood mononuclear cells; assay: Pharmacodynamics in peripheral blood mononuclear cells (western blot); type: in vivo, human; details: peripheral blood mononuclear cells of patients, first cycle
Description: Whole blood was collected from patients at selected time points into lithium–heparin Vacutainer® tubes (Vacutainer, BD, Franklin Lakes, NJ, USA). Each tube was inverted several times to ensure thorough mixing and then mixed with sterile 0.9% saline at a ratio of 1:1. This was then layered over ficol (Lymphoprep® Nycomed, Oslo, Norway) and centrifuged at 1200 r.p.m. (400 g equivalent) at 18°C for 30 min. The resulting mononuclear cell layer was then removed and resuspended in 0.9% NaCl. Cell pellets were obtained by centrifugation (600 g) and flash frozen in liquid nitrogen. Mononuclear cells were then stored at −70°C in labelled cryovials until further analysis.
Cell pellets were treated with lysis buffer (50 mM Tris–HCl, 150 mM NaCl, pH 7.5, 1% NP40, 2 mM PMSF, 10 μg ml^−1 aprotinin, 10 μg ml^−1 leupeptin, 1 mM activated sodium orthovanadate, 1 mM sodium fluoride and 10 mM β-glycerophosphate) for 30 min on ice. Samples (20–100 μg of protein) were heat-denatured in Laemmli sample buffer (10% glycerol, 5% β-mercaptoethanol, 2% sodium dodecyl sulphate (SDS), 62.5 mM Tris (pH 6.8), 0.05% bromphenol blue, final concentrations) and separated by SDS—polyacrylamide gel electrophoresis (PAGE) using pre-cast 10 or 15-well 20 or 10% Tris–glycine polyacrylamide gels (Invitrogen, Netherlands). […]

[7] = same patient, 800 mg b.i.d., course 2

CC[C@H](CO)Nc1nc(NCc2ccccc2)c2ncn(C(C)C)c2n1 [Seliciclib]
peak seliciclib concentration [1]: approximately 100 μM
Urinary retinol binding protein ([2]; Patient 20, Day 3, 800 mg b.i.d.): 59.2 mg/mol creatinine
Urinary retinol binding protein ([2]; Patient 20, Day 14, 800 mg b.i.d.): 20.8 mg/mol creatinine
Urinary retinol binding protein ([2]; Patient 21, Day 3, 800 mg b.i.d.): 44.7 mg/mol creatinine
Urinary retinol binding protein ([2]; Patient 21, Day 14, 800 mg b.i.d.): 25.7 mg/mol creatinine
Urinary retinol binding protein ([2]; Patient 22, Day 3, 800 mg b.i.d.): 7.9 mg/mol creatinine
Urinary retinol binding protein ([2]; Patient 22, Day 14, 800 mg b.i.d.): 40.1 mg/mol creatinine
Patients with stable disease after course 2 (malignant solid tumour; 100 mg b.i.d.): Two of three
Patients with stable disease after course 2 (malignant solid tumour; 200 mg b.i.d.): two of six
Patients with stable disease after course 2 (malignant solid tumour; 800 mg b.i.d.): three of 12
Objective tumour responses (malignant solid tumour; all dose levels): No objective tumour responses
Patients with disease stabilisation (malignant solid tumour; all dose levels, 21 treated patients): eight
Duration of disease stabilisation (malignant solid tumour; one patient with ovarian cancer, six courses): 18 weeks
concentration range achieving clinically relevant biological effects [3]: 7.9–30.2 μM
Preclinical toxicology findings [4]: anaemia, leucocytosis, bone marrow hyperplasia, polydipsia, polyuria and gastric ulceration
No. with grade 3 & 4 ALT increased ([5]; 100 mg b.i.d, 3 subjects): 0
No. with grade 3 & 4 AST increased ([5]; 100 mg b.i.d, 3 subjects): 0
No. with grade 3 & 4 Alk Phos increase ([5]; 100 mg b.i.d, 3 subjects): 0
No. with grade 3 & 4 Anorexia ([5]; 100 mg b.i.d, 3 subjects): 0
No. with grade 3 & 4 Bilirubin increase ([5]; 100 mg b.i.d, 3 subjects): 0
No. with grade 3 & 4 CKMB increase ([5]; 100 mg b.i.d, 3 subjects): 0
No. with grade 3 & 4 Fatigue ([5]; 100 mg b.i.d, 3 subjects): 0
No. with grade 3 & 4 Hyperglycaemia ([5]; 100 mg b.i.d, 3 subjects): 0
No. with grade 3 & 4 Hypokalemia ([5]; 100 mg b.i.d, 3 subjects): 0
No. with grade 3 & 4 Hyponatraemia ([5]; 100 mg b.i.d, 3 subjects): 0
No. with grade 3 & 4 Hypotension ([5]; 100 mg b.i.d, 3 subjects): 0
No. with grade 3 & 4 Lymphopenia ([5]; 100 mg b.i.d, 3 subjects): 0
No. with grade 3 & 4 Rash ([5]; 100 mg b.i.d, 3 subjects): 0
No. with grade 3 & 4 adverse events ([5]; 100 mg b.i.d, 3 subjects): 0
No. with grade 3 & 4 γ GT increase ([5]; 100 mg b.i.d, 3 subjects): 0
Toxicity at the 100 mg dose level ([5]; 100 mg b.i.d., three patients): No significant toxicity
No. with grade 3 & 4 ALT increased ([5]; 200 mg b.i.d, 6 subjects): 1
No. with grade 3 & 4 AST increased ([5]; 200 mg b.i.d, 6 subjects): 1
No. with grade 3 & 4 Alk Phos increase ([5]; 200 mg b.i.d, 6 subjects): 1
No. with grade 3 & 4 Anorexia ([5]; 200 mg b.i.d, 6 subjects): 0
No. with grade 3 & 4 Bilirubin increase ([5]; 200 mg b.i.d, 6 subjects): 1
No. with grade 3 & 4 CKMB increase ([5]; 200 mg b.i.d, 6 subjects): 1
No. with grade 3 & 4 Fatigue ([5]; 200 mg b.i.d, 6 subjects): 0
No. with grade 3 & 4 Hyperglycaemia ([5]; 200 mg b.i.d, 6 subjects): 0
No. with grade 3 & 4 Hypokalemia ([5]; 200 mg b.i.d, 6 subjects): 0
No. with grade 3 & 4 Hyponatraemia ([5]; 200 mg b.i.d, 6 subjects): 0
No. with grade 3 & 4 Hypotension ([5]; 200 mg b.i.d, 6 subjects): 0
No. with grade 3 & 4 Lymphopenia ([5]; 200 mg b.i.d, 6 subjects): 0
No. with grade 3 & 4 Rash ([5]; 200 mg b.i.d, 6 subjects): 0
No. with grade 3 & 4 adverse events ([5]; 200 mg b.i.d, 6 subjects): 2
No. with grade 3 & 4 γ GT increase ([5]; 200 mg b.i.d, 6 subjects): 1
Patients with derangements in liver biochemistry (γGT and ALP elevations) ([5]; 200 mg b.i.d.): 4 out of 6
No. with grade 3 & 4 ALT increased ([5]; 800 mg b.i.d, 12 subjects): 0
No. with grade 3 & 4 AST increased ([5]; 800 mg b.i.d, 12 subjects): 0
No. with grade 3 & 4 Alk Phos increase ([5]; 800 mg b.i.d, 12 subjects): 0
No. with grade 3 & 4 Anorexia ([5]; 800 mg b.i.d, 12 subjects): 1
No. with grade 3 & 4 Bilirubin increase ([5]; 800 mg b.i.d, 12 subjects): 0
No. with grade 3 & 4 CKMB increase ([5]; 800 mg b.i.d, 12 subjects): 0
No. with grade 3 & 4 Fatigue ([5]; 800 mg b.i.d, 12 subjects): 1
No. with grade 3 & 4 Hyperglycaemia ([5]; 800 mg b.i.d, 12 subjects): 1
No. with grade 3 & 4 Hypokalemia ([5]; 800 mg b.i.d, 12 subjects): 3
No. with grade 3 & 4 Hyponatraemia ([5]; 800 mg b.i.d, 12 subjects): 1
No. with grade 3 & 4 Hypotension ([5]; 800 mg b.i.d, 12 subjects): 1
No. with grade 3 & 4 Lymphopenia ([5]; 800 mg b.i.d, 12 subjects): 1
No. with grade 3 & 4 Rash ([5]; 800 mg b.i.d, 12 subjects): 1
No. with grade 3 & 4 adverse events ([5]; 800 mg b.i.d, 12 subjects): 7
No. with grade 3 & 4 γ GT increase ([5]; 800 mg b.i.d, 12 subjects): 3
Patients with hypokalaemia (<3.0 mmol l^−1) ([5]; 800 mg b.i.d.): five of 12
Patients with seliciclib-induced hyperglycaemia ([5]; 800 mg b.i.d.): five and five of 12
Dose-limiting toxicities ([5]; 800 mg b.i.d. p.o., 7 days every 21 days): grade 3 fatigue, grade 3 skin rash, grade 3 hyponatraemia and grade 4 hypokalaemia
Patients with derangements in liver biochemistry (γGT and ALP elevations) ([5]; 800 mg b.i.d.): 10 out of 12
Patients with grade 1 hypokalaemia ([5]; 800 mg b.i.d., 12 patients): two
Patients with grade 3 hypokalaemia ([5]; 800 mg b.i.d., 12 patients): two
Patients with grade 4 hypokalaemia ([5]; 800 mg b.i.d., 12 patients): one
Patients who experienced nausea ([5]; 800 mg dose level, not dose-limiting): 11 of the 12
Overall haematological toxicity ([5]; all dose levels): mild
Patients with seliciclib-related DLTs ([5]; final six patients treated at 800 mg): Four of the final six
Serum potassium (lowest level) ([5]; one patient, 800 mg b.i.d., day 7 of course 1): 2.2 mmol/L
Blood pressure (hypotension) [5, 7]: 82/52
Serum potassium nadir [5, 7]: 2.5 mmol/L
Serum sodium (hyponatraemia) [5, 7]: 127 mmol/L
Creatinine ([5]; same patient, 800 mg b.i.d., course 2, normal range <110): 130 µmol/L
Effect on growth of a human tumour xenograft (human tumour xenograft): significant growth delay
Inhibition of Cdk4 (Cdk4): only a weak inhibitor
Renal perfusion by MAG3 perfusion indices (renal perfusion): reduction in renal perfusion bilaterally
Inhibition of Cdk8 (Cdk8): only a weak inhibitor
Alterations of retinoblastoma phosphorylation and cyclin D1 levels [6]: not demonstrated; also recorded: No reliably detectable alterations
